Experimental data published in article PMC3615092, “Identification, Design and Bio-Evaluation of Novel Hsp90 Inhibitors by Ligand-Based Virtual Screening” (PLoS ONE, 2013).

Columns and labels:
MCF-7 cells = assay: Western-Blot analysis of Hsp90 client proteins and Hsp70; type: cell-based; details: MCF-7, 36 h
Experimental: MCF-7 cells were pretreated with various concentrations of the test compounds. After stimulation, cells were collected; lysed in lysis buffer [50 mM Tris-Cl, pH 7.6, 150 Mm NaCl, 1 mM EDTA, 1% (m/v) Nonidet P-40 (NP-40), 0.2 mM Phenylmethanesulfonyl fluoride (PMSF), 0.1 mM NaF and 1.0 mM dithiothreitol (DTT)], and the supernatant was obtained after centrifugation at 13,000× g for 10 min at 4°C. The concentration of protein in the supernatants was measured by the bicinchoninic acid (BCA) assay. Then equal amounts of protein (50 μg) were separated by 8% or 10% sodium dodecyl sulfate polyacrylamide gel electrophoresis (SDS-PAGE) and transferred onto the PVDF membranes (Millipore, Billerica, MA). The blots were incubated with specific antibodies against the indicated primary antibodies overnight at 4°C followed by IRDyeTM800-conjugated secondary antibody for 1 h at 37°C. Detection was performed by the Odyssey Infrared Imaging System (LI-COR; Lincoln, NE). All blots were stripped and incubated with polyclonal anti-β-actin antibody to ascertain equal loading of proteins.

Hsp90 = target: T1, Hsp90 (Homo sapiens, UniProt P07900); assay: Malachite green assay of Hsp90 ATPase activity; type: biochemical; details: by malachite green assay
T1 construct: The region encoding full-length Hsp90 was subcloned into pET28a; inferred from the pET28a vector and Ni-NTA purification; made in house; host or cells: E. coli
Experimental: The region encoding full-length Hsp90 was subcloned into pET28a. Protein expression in E. coli cells were induced with 0.5 mM IPTG. Cells were harvested after 20h of growth at 16°C and then disrupted by sonication. The soluble lysate was clarified by centrifugation and applied to a Ni^2+-nitrilo-triacetic acid (NTA) agarose column in a buffer (50 mM Tris-Cl, 300 mM NaCl, 10 mM Imidazole, 10% [v/v] Glycerol, 10 mM PMSF, 10 mM DTT). Hsp90 Protein was eluted with a linear gradient of 20–1000 mM imidazole. Hsp90 was identified by SDS-PAGE, and the high concentrated fraction was dialyzed against ATPase buffer (20 mM Tris-Cl, pH 7.5; 6 mM MgCl2; 20 mM KCl) and then aliquoted, frozen in liquid nitrogen, stored at −80°C.
The test compounds were diluted from mother plates (10 mM in 100% (v/v) DMSO) into daughter plates (200 μM in 2.0% (v/v) DMSO); 5 μL of test compound solution was added to each well (equivalent to a final concentration of 40 μM) of the 96-well assay plate. The first and last rows of the 96-well plate contained the appropriate concentration of DMSO were used as blank control. ATP was dissolved in the assay buffer to give a stock concentration of 2.5 mM and stored at room temperature. A 10 μL aliquot of ATP solution was added to each well to give a final assay concentration of 1 mM. Before the usage, Hsp90 protein was thawed on ice and suspended in chilled assay buffer to a stock concentration of 0.45 mg/mL, and the solution was kept on ice. The incubation was started by adding 10 μL of the stock Hsp90 to each well (except for the background wells which received 10 μL of assay buffer), giving a final assay volume of 25 μL. The plates were shaken for approximately 2 min and incubated for 3 h at 37°C.
The assay procedures were based on the literatures [33]–[35]. […] The reagent is initially dark brown, but on standing for ∼2 h at room temperature changes to a golden yellow and is ready for use. The assay buffer was 100 mM Tris–HCl, 20 mM KCl, 6 mM MgCl2, pH 7.4.
To stop the ATPase reactions, 80 μL of the malachite green reagent was added to each well.

MCF-7 = assay: Cell morphological assessment (DAPI staining, apoptosis); type: cell-based
Experimental: (§1) To detect morphological evidence of apoptosis, HCT116, MCF-7 and SKBR3 cell nuclei were visualized following DNA staining with the fluorescent dye DAPI. Briefly, cells were seeded at a concentration of 1×10^5 cells/well in 6-well tissue culture plates and treated with indicated concentration of S13. At the end of incubation, the morphology of cells was monitored under an inverted light microscope. Cells were then fixed with 4% paraform for 20 min and washed with PBS, and then incubated with DAPI (1 μg/ml) for 10 min. After washed with PBS, cells were observed using fluorescent microscopy (Olympus, Japan) with a peak excitation wave length of 340 nm.

SKBR3 = assay: as above; type: cell-based; details: SK-BR3, 2, 5, 10 μM, 24 h
Experimental: as §1

HCT116 = assay: as above; type: cell-based; details: HCT116, 2, 5, 10 μM, 24 h
Experimental: as §1

Hsp70 = target: T2, Hsp70 (Homo sapiens, UniProt P0DMV8); assay: Hsp70 ATPase activity assay (ADP Hunter Plus); type: biochemical
T2 construct: purchased Enzo Life science ALX-201-214-C025
T2 sequence (P0DMV8 whole entry): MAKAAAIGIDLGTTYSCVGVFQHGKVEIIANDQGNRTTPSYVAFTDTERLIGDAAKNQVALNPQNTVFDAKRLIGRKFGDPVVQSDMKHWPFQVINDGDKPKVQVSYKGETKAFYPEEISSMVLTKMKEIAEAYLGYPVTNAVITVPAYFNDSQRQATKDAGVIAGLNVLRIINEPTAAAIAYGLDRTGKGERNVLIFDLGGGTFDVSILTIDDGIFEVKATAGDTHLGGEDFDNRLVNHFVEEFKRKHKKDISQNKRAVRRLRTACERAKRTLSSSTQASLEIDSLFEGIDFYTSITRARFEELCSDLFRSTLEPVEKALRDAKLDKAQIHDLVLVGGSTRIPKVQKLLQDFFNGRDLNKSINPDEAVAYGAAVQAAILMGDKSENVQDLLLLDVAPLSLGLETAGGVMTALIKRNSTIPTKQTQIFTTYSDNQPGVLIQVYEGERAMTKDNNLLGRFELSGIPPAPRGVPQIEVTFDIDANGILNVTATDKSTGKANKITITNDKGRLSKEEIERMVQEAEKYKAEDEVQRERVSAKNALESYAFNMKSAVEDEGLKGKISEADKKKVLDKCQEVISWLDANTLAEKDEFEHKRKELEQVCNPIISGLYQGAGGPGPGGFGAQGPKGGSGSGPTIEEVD
Text: The following materials were used for the biological evaluation: The PET-28a HSP90 expression vector was constructed. The Ni^2+-nitrilo-triacetic acid (NTA) agarose was purchased from General Electric (USA). […] Isopropyl-1-thio-d-galactopyranoside (IPTG) was purchased from Sigma (St. Lousi. MO). Antibodies of β-Actin, Hsp70, Hsp90, c-Raf, Akt, Src, Phospho-Src, ERK and Her-2 were purchased from Cell Signaling Technology (Danvers, MA). Anti-p-Akt(S473) was purchased from Signalway Antibody (Baltimore, MD). HIF-1α antibody was purchased from R&D systems. The stock solution of Hsp90 was prepared in a 20 mM Tris-Cl buffer with a pH 7.4, and concentration was fixed at 5.0 μM. […] The screened out compounds were purchased from SPECS and dissolved in DMSO (Sigma, St. Louis, MO) to make a final concentration of 10^−2 mol/L and were stored at −20°C. […] The water used in the experiments was thrice-distilled and all other materials were of analytical reagent grade.
Hsp70 ATPase activity was measured using Discover RX ADP Hunter^TM Plus Assay kit assay as descripted in the manufacturer's instructions. Breifly, Hsp70 (3 μM) was incubated with 1 mM ATP in 100 mM Tris pH 7.4 at 37°C for 3 h in the presence or absence of various concentrations of test compounds. ADP generation was measured using Varioskan multimode microplate spectrophotometer (540 nm excitation and 620 nm emission). Fluorescence intensity values measured for Hsp70 without any testing compound was assumed as 100% of enzyme activity. The background reaction rate was measured in a reaction lacking enzyme or substrate and subtracted from the experimental rates.

IC50 (Hsp90): 3.89 ± 0.54 µM
IC50 (Hsp70; ADP Hunter Plus assay): 43.8 ± 4.38 µM
selectivity HSP90 over HSP70 (Hsp70; ratio of IC50 HSP70 / HSP90, ADP fluorescence assay): over 15 times
Structure (SMILES): COc1ccccc1N1CCN(CC(O)COCCOc2ccc(Br)cc2)CC1 (stereo not drawn) [Compound S13]
Hsp70 expression (MCF-7 cells): up-regulates
depletion of Hsp90-dependent client proteins (Her2, Src, Akt, ERK, c-Raf, Hif-1α) (MCF-7 cells): concentration-dependent
apoptosis induced (MCF-7; 10 μM, MCF-7 cells): over 50%
apoptosis-induced effects (MCF-7; MCF-7, 2, 5, 10 μM, 24 h): dose-dependent
apoptosis-induced effects (SKBR3): dose-dependent
apoptosis-induced effects (HCT116): dose-dependent
